From patent publication US20260256792A1, “TREATMENT OF CHRONIC SPONTANEOUS URTICARIA BY ADMINISTERING (R)-2-[3-[4-AMINO-3-(2-FLUORO-4-PHENOXY-PHENYL)PYRAZOLO[3,4-D]PYRIMIDIN-1-YL]PIPERIDINE-1-CARBONYL]-4-METHYL-4-[4-(OXETAN-3-YL)PIPERAZIN-1-YL]PENT-2-ENENITRILE” (priority 2023, published 2026)

System: moderate-to-severe chronic spontaneous urticaria (CSU)
Assay: Phase 2 CSU study: urticaria activity score over 7 days (UAS7)
Format: in vivo, human
Details: ITT
Description: The study comprises a 12 week, randomized, double-blind, placebo-controlled, multi-center, dose-ranging efficacy and safety phase, followed by a 40 week open label extension (OLE) phase (see FIG. 1). The study consists of three phases and an optional OLE phase. […] Clinically, CSU is characterized by the spontaneous and recurrent appearance of pruritic hives. The proposed primary endpoints were the UAS7 at Week 12 in EU and EU reference countries and the ISS7 in the US. Regardless of where a participant was from, all assessments were the same. The UAS7 score is a composite score containing both the HSS7 and the ISS7. This allowed a global assessment of the two key components of urticaria: hives and itch. […] The UAS is a validated PRO measure. […] The daily UAS scores range from 0 to 6 point/day. […] Patients were to complete the UAS using the e-diary. […] The following secondary endpoints were to be analyzed using the same approach as for the primary endpoint: • Change from baseline in UAS7 at Week 4 • Change from baseline in UAS7 at Week 12 (for US and US reference countries) • Change from baseline in ISS7 at Week 12 (except US and US reference countries) • Change from baseline in HSS7 at Week 12 The following responder secondary endpoints were to be analyzed using the Cochran-Mantel-Haenszel test adjusted by region: • Proportion of participants with UAS7<6 at Week 12 • Proportion of participants with UAS7=0 at Week 12 Participants who received selected prohibited medications and/or rescue medications were to be considered as non-responders for time points after the medication usage. For other participants, all available data including those collected during the off-treatment period were to be used to determine the responder/non-responder status. Missing data were to be considered as non-responders.

CC(C)(C=C(C#N)C(=O)N1CCC[C@@H](n2nc(-c3ccc(Oc4ccccc4)cc3F)c3c(N)ncnc32)C1)N1CCN(C2COC2)CC1 [rilzabrutinib, (R)-2-[3-[4-amino-3-(2-fluoro-4-phenoxy-phenyl)pyrazolo[3,4-d]pyrimidin-1-yl]piperidine-1-carbonyl]-4-methyl-4-[4-(oxetan-3-yl)piperazin-1-yl]pent-2-enenitrile]
Non-responder n (%), UAS7 ≤6 (400 mg BID, Week 11): 28 (68.3) n (%) | OR for rilzabrutinib vs. placebo, UAS7 = 0 (400 mg BID, Week 11): 2.892 | OR for rilzabrutinib vs. placebo, UAS7 ≤6 (400 mg BID, Week 11): 1.991 | RRD (%) for rilzabrutinib vs. placebo, UAS7 = 0 (400 mg BID, Week 11): 8.2 % | RRD (%) for rilzabrutinib vs. placebo, UAS7 ≤6 (400 mg BID, Week 11): 11.8 % | Responder n (%), UAS7 = 0 (400 mg BID, Week 11): 6 (14.6) n (%) | Responder n (%), UAS7 ≤6 (400 mg BID, Week 11): 13 (31.7) n (%) | Imputed non-responder n (%), UAS7 = 0 (400 mg BID, Week 12): 14 (34.1) n (%) | Imputed non-responder n (%), UAS7 ≤6 (400 mg BID, Week 12): 14 (34.1) n (%) | Non-responder n (%), UAS7 = 0 (400 mg BID, Week 12): 33 (80.5) n (%) | Non-responder n (%), UAS7 ≤6 (400 mg BID, Week 12): 31 (75.6) n (%) | OR for rilzabrutinib vs. placebo, UAS7 = 0 (400 mg BID, Week 12): 1.511 | OR for rilzabrutinib vs. placebo, UAS7 ≤6 (400 mg BID, Week 12): 2.067 | RRD (%) for rilzabrutinib vs. placebo, UAS7 ≤6 (400 mg BID, Week 12): 10.0 % | Responder n (%), UAS7 = 0 (400 mg BID, Week 12): 8 (19.5) n (%) | Responder n (%), UAS7 ≤6 (400 mg BID, Week 12): 10 (24.4) n (%) | Imputed non-responder n (%), UAS7 = 0 (400 mg QPM, Week 1): 0 n (%) | Imputed non-responder n (%), UAS7 ≤6 (400 mg QPM, Week 1): 0 n (%) | Non-responder n (%), UAS7 = 0 (400 mg QPM, Week 1): 38 (100) n (%) | Non-responder n (%), UAS7 ≤6 (400 mg QPM, Week 1): 36 (94.7) n (%) | OR for rilzabrutinib vs. placebo, UAS7 = 0 (400 mg QPM, Week 1): 0.000 (NE, | OR for rilzabrutinib vs. placebo, UAS7 ≤6 (400 mg QPM, Week 1): 1.099 | RRD (%) for rilzabrutinib vs. placebo, UAS7 = 0 (400 mg QPM, Week 1): −2.6 % | RRD (%) for rilzabrutinib vs. placebo, UAS7 ≤6 (400 mg QPM, Week 1): 0.4 % | Responder n (%), UAS7 = 0 (400 mg QPM, Week 1): 0 n (%) | Responder n (%), UAS7 ≤6 (400 mg QPM, Week 1): 2 (5.3) n (%) | Imputed non-responder n (%), UAS7 = 0 (400 mg QPM, Week 2): 0 n (%) | Imputed non-responder n (%), UAS7 ≤6 (400 mg QPM, Week 2): 0 n (%) | Non-responder n (%), UAS7 = 0 (400 mg QPM, Week 2): 38 (100) n (%) | Non-responder n (%), UAS7 ≤6 (400 mg QPM, Week 2): 37 (97.4) n (%) | OR for rilzabrutinib vs. placebo, UAS7 = 0 (400 mg QPM, Week 2): 0.000 (NE, | OR for rilzabrutinib vs. placebo, UAS7 ≤6 (400 mg QPM, Week 2): 0.517 | RRD (%) for rilzabrutinib vs. placebo, UAS7 = 0 (400 mg QPM, Week 2): −2.6 % | RRD (%) for rilzabrutinib vs. placebo, UAS7 ≤6 (400 mg QPM, Week 2): −2.3 % | Responder n (%), UAS7 = 0 (400 mg QPM, Week 2): 0 n (%) | Responder n (%), UAS7 ≤6 (400 mg QPM, Week 2): 1 (2.6) n (%) | Imputed non-responder n (%), UAS7 = 0 (400 mg QPM, Week 3): 0 n (%) | Imputed non-responder n (%), UAS7 ≤6 (400 mg QPM, Week 3): 0 n (%) | Non-responder n (%), UAS7 = 0 (400 mg QPM, Week 3): 38 (100) n (%) | Non-responder n (%), UAS7 ≤6 (400 mg QPM, Week 3): 36 (94.7) n (%) | OR for rilzabrutinib vs. placebo, UAS7 = 0 (400 mg QPM, Week 3): 0.000 (NE, | OR for rilzabrutinib vs. placebo, UAS7 ≤6 (400 mg QPM, Week 3): 0.553 | RRD (%) for rilzabrutinib vs. placebo, UAS7 = 0 (400 mg QPM, Week 3): −2.6 % | RRD (%) for rilzabrutinib vs. placebo, UAS7 ≤6 (400 mg QPM, Week 3): −3.9% | Responder n (%), UAS7 = 0 (400 mg QPM, Week 3): 0 n (%) | Responder n (%), UAS7 ≤6 (400 mg QPM, Week 3): 2 (5.3) n (%) | Imputed non-responder n (%), UAS7 = 0 (400 mg QPM, Week 4): 1 (2.6) n (%) | Imputed non-responder n (%), UAS7 ≤6 (400 mg QPM, Week 4): 1 (2.6) n (%) | Non-responder n (%), UAS7 = 0 (400 mg QPM, Week 4): 38 (100) n (%) | Non-responder n (%), UAS7 ≤6 (400 mg QPM, Week 4): 36 (94.7) n (%) | OR for rilzabrutinib vs. placebo, UAS7 = 0 (400 mg QPM, Week 4): 0.000 (NE, | OR for rilzabrutinib vs. placebo, UAS7 ≤6 (400 mg QPM, Week 4): 0.432 | RRD (%) for rilzabrutinib vs. placebo, UAS7 = 0 (400 mg QPM, Week 4): −4.8 % | RRD (%) for rilzabrutinib vs. placebo, UAS7 ≤6 (400 mg QPM, Week 4): −6.0% | Responder n (%), UAS7 = 0 (400 mg QPM, Week 4): 0 n (%) | Responder n (%), UAS7 ≤6 (400 mg QPM, Week 4): 2 (5.3) n (%) | Imputed non-responder n (%), UAS7 = 0 (400 mg QPM, Week 5): 2 (5.3) n (%) | Imputed non-responder n (%), UAS7 ≤6 (400 mg QPM, Week 5): 2 (5.3) n (%) | Non-responder n (%), UAS7 = 0 (400 mg QPM, Week 5): 37 (97.4) n (%) | Non-responder n (%), UAS7 ≤6 (400 mg QPM, Week 5): 36 (94.7) n (%) | OR for rilzabrutinib vs. placebo, UAS7 = 0 (400 mg QPM, Week 5): 1.000 | OR for rilzabrutinib vs. placebo, UAS7 ≤6 (400 mg QPM, Week 5): 1.065 | RRD (%) for rilzabrutinib vs. placebo, UAS7 = 0 (400 mg QPM, Week 5): 0.0 % | RRD (%) for rilzabrutinib vs. placebo, UAS7 ≤6 (400 mg QPM, Week 5): 0.3 % | Responder n (%), UAS7 = 0 (400 mg QPM, Week 5): 1 (2.6) n (%) | Responder n (%), UAS7 ≤6 (400 mg QPM, Week 5): 2 (5.3) n (%)
